Assay results as given in US10195226B2, “Medicinal carbohydrates for treatment of respiratory conditions” (Australian Biomedical Company Pty Ltd., priority 2009, dated 2019).
Read-outs that look alike come from different tables or passages of the source.

Experiments:
[1] = system: Small Airway Epithelial Cells (SAEC); details: SAEC pretreated with neuraminidase, 24 h, control (treated with neuraminidase) = 100%, mean ± SEM, n = 3
[2] = system: Normal Human Bronchial/Tracheal Epithelial Cells (NHBE); details: NHBE pretreated with neuraminidase, 24 h, control (treated with neuraminidase) = 100%, mean ± SEM, n = 3
mucocilliary transport = details: reference [6]; result in words; cited from earlier work
Balb-C mice [3] = test: Tolerance study on Balb-C mice; assay type: in vivo
Excerpt: (§1) Compounds of Formula (1) and/or (2) have been tested for safety by the applicants. For example, Compounds (1) and (2) were used in a tolerance and subchronic toxicity study on Balb-C mice (AEC Approval Code: BAM/B/2005/16).

Balb-C mice [4] = test: Subchronic toxicity study on Balb-C mice; assay type: in vivo
Excerpt: as §1

male Hartley guinea pigs = test: Guinea pig cough model (neuraminidase aerosol, citric acid challenge); assay type: in vivo; details: for Restoration of respiratory tract damages caused by neuraminidase: guinea pig cough model, oral dose of 500 mg/kg/day×3 days, result in words, 500 mg/kg/day
Procedure: A guinea pig cough model was also established by the applicants. Compounds (1) and (2) were tested in this model. […] These in vivo results are in line with the in vitro data. Thus, both the efficacy and safety data support compounds of Formula (1) and/or (2) and particularly compounds (1) and (2) may be useful for medicinal applications.
Male guinea pigs were housed in pens and have access to water and food ad libitum. This study was approved by Bio21 Institute Animal Ethics Committee.
Twenty four Conscious male Hartley guinea pigs (500˜550 g) were divided into A, B, C three groups (8 animals for each group), and pretreated with either 5 units/ml solution of neuraminidase (Sigma N2133, lyophilized powder, Type X, 150˜400 units/mg protein) in water (group B and C) or saline alone (Group A) via an aerosol for 5 minutes on day one. Then, on day one, two and three, the guinea pigs were either orally administered with 500 mg/kg of compound (1) (Group C), or water alone (Group A and B). On day four, all the animals were challenged with 0.5M citric acid solution (nebulised, 10 minutes exposure). The cough frequency, times to the 1st, 2nd and third cough, and times to the 1st nose rubs were then recorded over a period of 15 minutes.

[5] = mammals, reference [8]; cited from earlier work
rabbits = details: pre-treatment with repeated administrations (inhalations), reference [7]; cited from earlier work
[6] = guinea pigs, neuraminidase aerosol day one, 500 mg/kg oral on days one to three, 0.5M citric acid challenge day four

In the case of `CC(=O)NC1C(O)OC(COC(C)=O)C(OC(C)=O)C1OC(C)=O` (stereo not shown) [Compound (8)], the Cell viability ([1]; compound 0.003 μg/ml) is reported as 125% ± 8.51, the Cell viability ([1]; compound 0.05 μg/ml) is reported as 109% ± 1.16 and the Cell viability ([1]; compound 0.19 μg/ml) is reported as 115% ± 3.52. The Cell viability ([1]; compound 0.77 μg/ml) was 103% ± 3.21, the Cell viability ([1]; compound 3.1 μg/ml) was 109% ± 2.79 and the Cell viability ([1]; compound 12.5 μg/ml) was 104% ± 1.95. For the same compound, the Cell viability ([1]; compound 50 μg/ml) was 91% ± 3.36, the Cell viability ([2]; compound 0.003 μg/ml) was 129% ± 1.70 and the Cell viability ([2]; compound 0.012 μg/ml) was 118% ± 3.19. For the same compound, the Cell viability ([2]; compound 0.05 μg/ml) was 93% ± 1.38, the Cell viability ([2]; compound 0.19 μg/ml) was 96% ± 1.21 and the Cell viability ([2]; compound 0.77 μg/ml) was 133% ± 2.09. For the same compound, the Cell viability ([2]; compound 3.1 μg/ml) was 111% ± 2.44, the Cell viability ([2]; compound 12.5 μg/ml) was 81% ± 0.60 and the Cell viability ([2]; compound 50 μg/ml) was 42% ± 1.55.
In the case of `OC[C@H]1O[C@@H](O[C@H]2[C@H](O)[C@@H](O)C(O)O[C@@H]2CO)[C@H](O)[C@@H](O)[C@H]1O` (stereo partly shown) [lactose, reference compound], the “Protection against the impairment of the mucocilliary transport” value (mucocilliary transport) is given as “not”.
For `CC(=O)N[C@@H]1C(O)O[C@H](CO)[C@@H](O)[C@@H]1O` (stereo partly drawn) [Compound (1), N-acetyl-D-mannosamine], the Tolerance (Balb-C mice [3]; 2 g/Kg intraperitoneal dose) was “well tolerated”, the Tolerance (Balb-C mice [3]; 5 g/Kg oral dose) was “well tolerated” and the Subchronic toxicity (Balb-C mice [4]; 0.5 g/Kg/day×30 days intraperitoneal dose) was “non-toxic”. The Subchronic toxicity (Balb-C mice [4]; 1 g/Kg/day×30 days oral dose) was “non-toxic”, the “Restoration of respiratory tract damages caused by neuraminidase” value (from here on “Restoration”) (male Hartley guinea pigs) was “could restore the respiratory tract damages caused by neuraminidase” and the “Restoration” value (male Hartley guinea pigs; listed as compound (1)) was “helped to restore the damages caused by neuraminidase”. The “Cough frequency (in 15 minutes)” value (male Hartley guinea pigs; [6]) was 16 ± 2.2, the “Time (second) to the 1st nose rubs” value (male Hartley guinea pigs; [6]) was 49 ± 6.5 s and the “Time (seconds) to the 1st cough” value (male Hartley guinea pigs; [6]) was 85 ± 15 s. The “Time (seconds) to the 2nd cough” value (male Hartley guinea pigs; [6]) was 137 ± 31 s, the “Time (seconds) to the 3rd cough” value (male Hartley guinea pigs; [6]) was 220 ± 10 s and the “Metabolism after oral administration” value [5] was “rapidly metabolized into glucose”.
With `CC(=O)N[C@H]1[C@H]([C@H](O)[C@H](O)CO)OC(O)(C(=O)[O-])C[C@@H]1O.[Na+]` (stereo partly shown) [Compound (2), N-acetylneuraminic acid sodium salt] the Tolerance (Balb-C mice [3]; 2 g/Kg intraperitoneal dose) was “well tolerated”, the Tolerance (Balb-C mice [3]; 5 g/Kg oral dose) was “well tolerated” and the “Restoration” value (male Hartley guinea pigs; sodium salt) was “could restore the respiratory tract damages caused by neuraminidase”.
For `CC(=O)NC1C(OC(C)=O)OC(COC(C)=O)C(OC(C)=O)C1OC(C)=O` (stereo not shown) [Compound (7)], the Cell viability ([1]; compound 0.003 μg/ml) was 102% ± 0.62, the Cell viability ([1]; compound 0.012 μg/ml) was 105% ± 1.83 and the Cell viability ([1]; compound 0.05 μg/ml) was 128% ± 1.98. The Cell viability ([1]; compound 0.19 μg/ml) was 105% ± 2.01, the Cell viability ([1]; compound 0.77 μg/ml) was 112% ± 1.29 and the Cell viability ([1]; compound 3.1 μg/ml) was 103% ± 1.14. For the same compound, the Cell viability ([1]; compound 12.5 μg/ml) was 134% ± 0.81, the Cell viability ([1]; compound 50 μg/ml) was 73% ± 2.18 and the Cell viability ([2]; compound 0.003 μg/ml) was 85% ± 2.71. For the same compound, the Cell viability ([2]; compound 0.012 μg/ml) was 103% ± 4.70, the Cell viability ([2]; compound 0.05 μg/ml) was 104% ± 5.85 and the Cell viability ([2]; compound 0.19 μg/ml) was 100% ± 0.66. The Cell viability ([2]; compound 0.77 μg/ml) was 99% ± 1.93, the Cell viability ([2]; compound 3.1 μg/ml) was 98% ± 5.65 and the Cell viability ([2]; compound 12.5 μg/ml) was 117% ± 4.12. For the same compound, the Cell viability ([2]; compound 50 μg/ml) was 54% ± 0.98.
With `CC(=O)NC1C(O)OC(CO)C(O)C1O` (stereo not shown) [Compound (9)] the Cell viability ([1]; compound 0.19 μg/ml) was 121% ± 2.42, the Cell viability ([1]; compound 0.77 μg/ml) was 120% ± 3.14 and the Cell viability ([1]; compound 3.1 μg/ml) was 115% ± 3.17. The Cell viability ([1]; compound 12.5 μg/ml) was 119% ± 3.04, the Cell viability ([1]; compound 50 μg/ml) was 122% ± 3.21 and the Cell viability ([1]; high concentration 78.1 μg/ml) was 100% ± 2.92. For the same compound, the Cell viability ([1]; high concentration 312.5 μg/ml) was 90% ± 3.28, the Cell viability ([1]; high concentration 1.25 mg/ml) was 96% ± 3.16 and the Cell viability ([1]; high concentration 5 mg/ml) was 83% ± 2.85. The Cell viability ([2]; compound 0.19 μg/ml) was 107% ± 3.41, the Cell viability ([2]; compound 0.77 μg/ml) was 107% ± 1.26 and the Cell viability ([2]; compound 3.1 μg/ml) was 108% ± 3.24. The Cell viability ([2]; compound 12.5 μg/ml) was 106% ± 3.49, the Cell viability ([2]; compound 50 μg/ml) was 106% ± 2.52 and the Cell viability ([2]; high concentration 78.1 μg/ml) was 125% ± 3.23. The Cell viability ([2]; high concentration 312.5 μg/ml) was 95% ± 2.85, the Cell viability ([2]; high concentration 1.25 mg/ml) was 96% ± 2.42 and the Cell viability ([2]; high concentration 5 mg/ml) was 76% ± 2.71.
In the case of `CC(=O)N[C@H]1[C@H]([C@H](O)[C@H](O)CO)OC(O)(C(=O)O)C[C@@H]1O` (stereo partly shown) [N-acetylneuraminic acid], the “Protection against the impairment of the mucocilliary transport” value (mucocilliary transport) is listed as “dose-dependently protected” and the “Prevention of inflammatory changes caused by long term exposure of SO2” value (rabbits) is listed as “remarkably prevented the inflammatory changes”.
